Here are results for one compound from PMC4871512, “Drug-Based Lead Discovery: The Novel Ablative Antiretroviral Profile of Deferiprone in HIV-1-Infected Cells and in HIV-Infected Treatment-Naive Subjects of a Double-Blind, Placebo-Controlled, Randomized Exploratory Trial” (PLoS ONE, 2016).

Series [1] deals with HIV-infected cell lines and HIV-infected primary cells. The note with it: cited from earlier work.
The target in series [2] is T1, deoxyhypusyl hydroxylase (DOHH) (Homo sapiens, UniProt Q9BU89).
T1 construct: endogenous in cells; host or cells: single-donor primary peripheral blood mononuclear cells (PBMCs), uninfected or infected with a clinical HIV-1 isolate
T1 sequence (Q9BU89 1-302): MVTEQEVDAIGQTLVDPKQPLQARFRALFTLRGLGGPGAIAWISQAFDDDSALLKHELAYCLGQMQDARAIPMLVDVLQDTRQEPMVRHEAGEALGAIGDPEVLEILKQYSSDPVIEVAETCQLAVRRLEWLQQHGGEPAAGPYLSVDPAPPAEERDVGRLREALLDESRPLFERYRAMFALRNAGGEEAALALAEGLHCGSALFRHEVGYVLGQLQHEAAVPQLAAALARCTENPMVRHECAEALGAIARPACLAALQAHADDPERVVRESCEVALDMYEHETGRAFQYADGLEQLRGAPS
The series is described as follows: Cellular DOHH activity by metabolic labeling of deoxyhypusyl-eIF5A and hypusyl-eIF5A with (1,8-3H)spermidine. The series is classed as cell-based. How it is done:
Fig 2 Effect of deferiprone in HIV-infected primary cells: Apoptotic DNA fragmentation, deoxyhypusyl-eIF5A accumulation, and DOHH activity. Apoptotic DNA fragmentation (Panel A) was detected by terminal deoxynucleotide transferase dUTP nick end labeling (TUNEL) of single-donor peripheral blood mononuclear cells, maintained in short-term non-replenished cultures as described. Cells were left uninfected and/or untreated; or infected immediately after plating with clinical HIV-1 isolate and 12 hours after infection, treated with 200 μM deferiprone. […] The dose-effect curve for inhibition of cellular DOHH by increasing deferiprone concentrations in short-term non-replenished single-donor cultures (Panel C) was calculated from the accumulation of its ^3H-labeled substrate and the decrease of its ^3H-labeled product; error bars are at the size of the graph symbols and not shown. Black, HIV-infected untreated cells; green, uninfected untreated cells; blue, uninfected deferiprone-treated cells; red, HIV-infected deferiprone-treated cells; large triangles, HIV-infected cells (red) or uninfected cells (blue) treated with 200 μM deferiprone.
Metabolic labeling with (1,8-^3H)spermidine at 5 μCi/ml for 18 hours was performed as described in primary cell cultures of the same volume, viability by dye exclusion, cell number, and donor origin. Following acid hydrolysis of each sample for release of radiolabeled hypusine and deoxyhypusine, separation by ion-exchange chromatography, and liquid scintillation measurement of incorporated label, 18 fractions were collected and the counts in the eluted fractions were proportionally adjusted to a total of 10,000 cpm per sample. This normalization adjusts for variances in the radioactivity of different samples and allows direct comparison of their hypusine-deoxyhypusine elution profiles. Only the hypusine- / deoxyhypusine-containing fractions (6 through 14) were used for analysis.

A short description of the next series: in vitro. It counts as cell-based. As to conditions: human. On the procedure: The antiretroviral activity of deferiprone was tested in primary cultures of PBMCs, infected in vitro with clinical isolate or mock-infected with clinical isolate-identical cell- and virus-free medium as described. Briefly, to approximate the bi-compartmental mode of HIV-1 infection in vivo, which comprises a cell-generative compartment that provides non-infected but HIV-1 susceptible cells, and an HIV-generative compartment in which they become infected, the cultures were replenished as described with freshly obtained uninfected primary cells and medium at regular intervals, assuring identical cell number in both the treated and control cultures by computerized trypan blue exclusion analysis (Vi-CELL™; Beckman Coulter, Miami, FL); deferiprone concentrations were adjusted as indicated. This model allowed for months-long monitoring of HIV-1 parameters in productively infected cultures.

For series [3] the following is noted: cited from earlier work.

A word on the viability: it is a read-out of living cells in per cent, often relative to untreated cells. As to `Cc1c(O)c(=O)ccn1C` [deferiprone, 3-hydroxy-1,2-dimethylpyridin-4-one], the “HIV-1 inhibition in chronically infected cell lines” value in series [1] (200 μM deferiprone) is listed as “near-maximal HIV-1 inhibition”. In series [1] (treated HIV-infected cells), the “ribosomal presence of gag mRNA, amount of intra- and extracellular p24, budding of viral particles” value is reported as “suppress”. For the same compound, the “newly synthesized deoxyhypusyl-eIF5A accumulated in HIV-infected treated cells, higher than in uninfected treated cultures” value in series [2] (200 μM deferiprone) is roughly 40%. In addition, the “DOHH activity in the primary cells” value in series [2] (at ≤100 μM deferiprone, infected and uninfected cultures) is no less than 90%. In addition, in series [2] (at ≥200 μM deferiprone, infected and uninfected cultures), the “cellular DOHH activity” value was no more than 8%. In the series “in vitro”, this compound yielded a viability at 200 µM of no less than 95% and a viability at 200 μM greater than 95%. Also, the “half-life in peripheral blood” value in series [3] (human) is “approximately 2 hour”. Besides, in series [3] (in vivo, 65.2 mg/kg), the peak serum level result is reported as “up to 450 µM”. In addition, in series [3] (in vivo, po), the “difference in peak serum concentration (cmax) between UGT1A6-typed subjects” value was “up to 35%” and the “difference in total drug exposure over time (AUC0 - ∞) between UGT1A6-typed subjects” value is reported as 38%.
